According to patent publication US9359308B2, “Pyrazine kinase inhibitors” (Portola Pharmaceuticals, Inc., priority 2011, dated 2016):
pIC50: −log10 of the molar value.

Target: T1, full length active recombinant SYK enzyme (Homo sapiens, UniProt P43405)
T1 construct: full length active recombinant SYK enzyme (Millipore, Calif.); purchased Millipore
Assay: Inhibition of Syk tyrosine phosphorylation activity (LANCE TR-FRET kinase assay)
Assay type: biochemical
Conditions: activity in the Syk assays, class symbols
In short: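 IC50 was derived by non-linear regression of TR-FRET signal (Eu-W1024-PY100 donor, streptavidin-APC acceptor) read 1 h after EDTA quench. The kinase step ran 1 h at room temperature with 1 nM full-length SYK, 550 nM biotinylated DEEDYESP substrate and 100 μM ATP in Tris pH 7.5/MgCl2/DTT at 3% final DMSO.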

pIC50 | SMILES
7.00 to 8.00 | NC(=O)c1ncc(N[C@@H]2CCCC[C@@H]2N)nc1Nc1cccc(C(=O)N2CCC2)c1 [Example 307, 5-((1R,2S)-2-aminocyclohexylamino)-3-(3-(azetidine-1-carbonyl)phenylamino)pyrazine-2-carboxamide]
8.00 to 9.00 | NC(=O)c1ncc(N[C@@H]2CCCC[C@@H]2N)nc1Nc1cnc2ncccc2c1 [Example 420, 3-((1,8-naphthyridin-3-yl)amino)-5-(((1R,2S)-2-aminocyclohexyl)amino)pyrazine-2-carboxamide]
7.00 to 8.00 | Cc1cc(Nc2nc(N[C@H](CC3CC3)C(N)=O)c(Cl)nc2C(N)=O)sn1 [Example 136, (R)-5-((1-amino-3-cyclopropyl-1-oxopropan-2-yl)amino)-6-chloro-3-((3-methylisothiazol-5-yl)amino)pyrazine-2-carboxamide]
7.00 to 8.00 | Cc1cccc(Nc2nc(N[C@@H]3CCCC(F)(F)[C@@H]3N)cnc2C(N)=O)c1 [Example 103, 5-((1R,2R)-2-amino-3,3-difluorocyclohexylamino)-3-(m-tolylamino)pyrazine-2-carboxamide]
7.00 to 8.00 | Cn1cc(Nc2nc(N[C@@H]3CCCC[C@@H]3N)cnc2C(N)=O)cn1 [Example 186, 5-((1R,2S)-2-aminocyclohexylamino)-3-(1-methyl-1H-pyrazol-4-ylamino)pyrazine-2-carboxamide]
7.00 to 8.00 | Cc1ccc(Nc2nc(N[C@H](CC3CC3)C(N)=O)cnc2C(N)=O)cc1 [Example 174, (R)-5-(1-amino-3-cyclopropyl-1-oxopropan-2-ylamino)-3-(p-tolylamino)pyrazine-2-carboxamide]
8.00 to 9.00 | CC[C@@H](Nc1cnc(C(N)=O)c(Nc2cnc3ccncc3c2)n1)C(N)=O [Example 381, (R)-3-(1,6-naphthyridin-3-ylamino)-5-(1-amino-1-oxobutan-2-ylamino)pyrazine-2-carboxamide]
8.00 to 9.00 | COc1ccc(Nc2nc(N[C@@H]3CCCC[C@@H]3N)cnc2C(N)=O)cn1 [Example 296, 5-((1R,2S)-2-aminocyclohexylamino)-3-(6-methoxypyridin-3-ylamino)pyrazine-2-carboxamide]
7.00 to 8.00 | CC[C@@H](Nc1cnc(C(N)=O)c(Nc2ccc3ncncc3c2)n1)C(N)=O [Example 404, (R)-5-(1-amino-1-oxobutan-2-ylamino)-3-(quinazolin-6-ylamino)pyrazine-2-carboxamide]
< 6.00 | NC(=O)c1ncc(N[C@@H]2CCCC(F)(F)[C@@H]2N)nc1Nc1cc(-c2ccccc2)no1 [Example 387, 5-((1R,2R)-2-amino-3,3-difluorocyclohexylamino)-3-(3-phenylisoxazol-5-ylamino)pyrazine-2-carboxamide]
6.00 to 7.00 | NC(=O)c1ncc(N[C@@H]2CCCC[C@@H]2N)nc1Nc1ccc(-n2cccn2)cc1 [Example 62, 3-(4-(1H-pyrazol-1-yl)phenylamino)-5-((1R,2S)-2-aminocyclohexylamino)pyrazine-2-carboxamide]
8.00 to 9.00 | CN1C(=O)CCc2cc(Nc3nc(N[C@@H]4CCCC[C@@H]4N)cnc3C(N)=O)ccc21 [Example 90, 5-((1R,2S)-2-aminocyclohexylamino)-3-(1-methyl-2-oxo-1,2,3,4-tetrahydroquinolin-6-ylamino)pyrazine-2-carboxamide]
7.00 to 8.00 | NC(=O)c1ncc(N[C@H]2CCNC2)nc1Nc1ccc2ncccc2c1 [Example 108, (S)-5-(pyrrolidin-3-ylamino)-3-(quinolin-6-ylamino)pyrazine-2-carboxamide]
8.00 to 9.00 | CN1C(=O)COc2ccc(Nc3nc(N[C@@H]4CCCC[C@@H]4N)cnc3C(N)=O)cc21 [Example 207, 5-((1R,2S)-2-aminocyclohexylamino)-3-(4-methyl-3-oxo-3,4-dihydro-2H-benzo[b][1,4]oxazin-6-ylamino)pyrazine-2-carboxamide]
7.00 to 8.00 | NC(=O)c1ncc(N[C@@H]2CCCC(F)(F)[C@@H]2N)nc1Nc1ccc(-c2ccncc2)cc1 [Example 26, 5-((1R,2R)-2-amino-3,3-difluorocyclohexylamino)-3-(4-(pyridin-4-yl)phenylamino)pyrazine-2-carboxamide]
7.00 to 8.00 | CC[C@@H](Nc1cnc(C(N)=O)c(Nc2cccc(-c3ncco3)c2)n1)C(N)=O [Example 450, (R)-5-((1-amino-1-oxobutan-2-yl)amino)-3-((3-(oxazol-2-yl)phenyl)amino)pyrazine-2-carboxamide]
8.00 to 9.00 | NC(=O)c1ncc(N[C@@H]2CCCC[C@@H]2N)nc1Nc1cc(-n2ccnn2)cc(-n2nccn2)c1 [Example 429, 3-((3-(1H-1,2,3-triazol-1-yl)-5-(2H-1,2,3-triazol-2-yl)phenyl)amino)-5-(((1R,2S)-2-aminocyclohexyl)amino)pyrazine-2-carboxamide]
8.00 to 9.00 | NC(=O)c1ncc(N[C@@H]2CCCC(F)(F)[C@@H]2N)nc1Nc1ccnc(C2CC2)c1 [Example 346, 5-((1R,2R)-2-amino-3,3-difluorocyclohexylamino)-3-(2-cyclopropylpyridin-4-ylamino)pyrazine-2-carboxamide]

pIC50 | SMILES
7.00 to 8.00 | CC(C)C[C@@H](Nc1cnc(C(N)=O)c(Nc2ccc(N3CCC3)nc2)n1)C(N)=O [Example 334, (R)-5-(1-amino-4-methyl-1-oxopentan-2-ylamino)-3-(6-(azetidin-1-yl)pyridin-3-ylamino)pyrazine-2-carboxamide]
7.00 to 8.00 | CC(C)C[C@@H](Nc1cnc(C(N)=O)c(Nc2cccc(-n3nccn3)c2)n1)C(N)=O [Example 64, (R)-3-(3-(2H-1,2,3-triazol-2-yl)phenylamino)-5-(1-amino-4-methyl-1-oxopentan-2-ylamino)pyrazine-2-carboxamide]
8.00 to 9.00 | CC[C@@H](Nc1cnc(C(N)=O)c(Nc2snc3ccsc23)n1)C(N)=O [Example 268, (R)-5-(1-amino-1-oxobutan-2-ylamino)-3-(thieno[3,2-c]isothiazol-3-ylamino)pyrazine-2-carboxamide]
8.00 to 9.00 | C[C@@H](Nc1cnc(C(N)=O)c(Nc2cnc3ccc(F)cc3c2)n1)C(N)=O [Example 243, (R)-5-(1-amino-1-oxopropan-2-ylamino)-3-(6-fluoroquinolin-3-ylamino)pyrazine-2-carboxamide]
< 6.00 | Cc1nsc(Nc2nc(N[C@@H]3CCCC[C@@H]3N)cnc2C(N)=O)c1-c1cncnc1 [Example 125, 5-(((1R,2S)-2-aminocyclohexyl)amino)-3-((3-methyl-4-(pyrimidin-5-yl)isothiazol-5-yl)amino)pyrazine-2-carboxamide]
7.00 to 8.00 | CC[C@@H](Nc1cnc(C(N)=O)c(Nc2snc(C)c2Cl)n1)C(N)=O [Example 135, (R)-5-((1-amino-1-oxobutan-2-yl)amino)-3-((4-chloro-3-methylisothiazol-5-yl)amino)pyrazine-2-carboxamide]
8.00 to 9.00 | CS(=O)(=O)c1ccc(Nc2nc(N[C@H](CC3CC3)C(N)=O)cnc2C(N)=O)cc1 [Example 166, (R)-5-(1-amino-3-cyclopropyl-1-oxopropan-2-ylamino)-3-(4-(methylsulfonyl)phenylamino)pyrazine-2-carboxamide]
8.00 to 9.00 | NC(=O)c1ncc(NC(CC(F)(F)F)C(N)=O)nc1Nc1ccc2ncccc2c1 (stereo not drawn) [Example 6, 5-(1-amino-4,4,4-trifluoro-1-oxobutan-2-ylamino)-3-(quinolin-6-ylamino)pyrazine-2-carboxamide]
8.00 to 9.00 | CC[C@@H](Nc1cnc(C(N)=O)c(Nc2cc(C)ns2)n1)C(N)=O [Example 373, (R)-5-(1-amino-1-oxobutan-2-ylamino)-3-(3-methylisothiazol-5-ylamino)pyrazine-2-carboxamide]
7.00 to 8.00 | NC(=O)c1ncc(N[C@H]2CCCNC2)nc1Nc1ccc2ncccc2c1 [Example 58, (S)-5-(piperidin-3-ylamino)-3-(quinolin-6-ylamino)pyrazine-2-carboxamide]
7.00 to 8.00 | COC[C@@H](Nc1cnc(C(N)=O)c(Nc2cnc3cccnc3c2)n1)C(N)=O [Example 410, (R)-3-(1,5-naphthyridin-3-ylamino)-5-(1-amino-3-methoxy-1-oxopropan-2-ylamino)pyrazine-2-carboxamide]
6.00 to 7.00 | COc1ccc(Nc2nc(N[C@@H]3CCCC(F)(F)[C@@H]3N)cnc2C(N)=O)cn1 [Example 330, 5-((1R,2R)-2-amino-3,3-difluorocyclohexylamino)-3-(6-methoxypyridin-3-ylamino)pyrazine-2-carboxamide]
7.00 to 8.00 | CC[C@@H](Nc1cnc(C(N)=O)c(Nc2cc(-c3ccccc3)ns2)n1)C(N)=O [Example 403, (R)-5-(1-amino-1-oxobutan-2-ylamino)-3-(3-phenylisothiazol-5-ylamino)pyrazine-2-carboxamide]
7.00 to 8.00 | NC(=O)c1ncc(N[C@@H]2CCCC[C@@H]2N)nc1Nc1ccc(C(=O)N2CCC2)nc1 [Example 280, 5-((1R,2S)-2-aminocyclohexylamino)-3-(6-(azetidine-1-carbonyl)pyridin-3-ylamino)pyrazine-2-carboxamide]
8.00 to 9.00 | Cc1cc(Nc2nc(N[C@H](CC3CC3)C(N)=O)cnc2C(N)=O)ccn1 [Example 101, (R)-5-(1-amino-3-cyclopropyl-1-oxopropan-2-ylamino)-3-(2-methylpyridin-4-ylamino)pyrazine-2-carboxamide]
8.00 to 9.00 | CCc1ccc(Nc2nc(N[C@@H]3CCCC[C@@H]3N)cnc2C(N)=O)cn1 [Example 350, 5-((1R,2S)-2-aminocyclohexylamino)-3-(6-ethylpyridin-3-ylamino)pyrazine-2-carboxamide]
6.00 to 7.00 | CC(=O)N1CCN(c2ccc(Nc3nc(NC4CC4)cnc3C(N)=O)cc2)CC1 [Example 59, 3-(4-(4-acetylpiperazin-1-yl)phenylamino)-5-(cyclopropylamino)pyrazine-2-carboxamide]
7.00 to 8.00 | CC[C@@H](Nc1cnc(C(N)=O)c(Nc2cnn(-c3ccccc3)c2)n1)C(N)=O [Example 173, (R)-5-(1-amino-1-oxobutan-2-ylamino)-3-(1-phenyl-1H-pyrazol-4-ylamino)pyrazine-2-carboxamide]
